In ChEMBL document CHEMBL1201862, “PubChem BioAssay data set” (2004):
Calls of active or inactive are those of the source.

What was measured:
[1] = cytotoxicity in COV434 cells, dose response, cytotoxicity control for PAX8 inhibitor project, cell-based, plate reader, dry powder, SA7 (AID 743145); assay type: functional
[2] = cytotoxicity in OV-90 ovarian cancer cells, dose response, PAX8 inhibitor project, cell-based, plate reader, dry powder, SA8 (AID 743149); assay type: functional
[3] = PAX5 activity inhibitors, dose response, selectivity assay for PAX8 inhibitor project, cell-based, plate reader, dry powder samples (AID 743047); assay type: functional;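 further: HEK293 cells carrying a Pax5 driven CD19 promoter luciferase reporter; potency of inhibitors that lower reporter luminescence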
[4] = cytotoxicity in OVCAR4 cells, dose response, cytotoxicity control for PAX8 inhibitor project, cell-based, plate reader, dry powder, SA11 (AID 743150); assay type: functional; settings: OVCAR-4
[5] = PAX2 cell-based inhibition, dose response, selectivity assay for PAX8 inhibitor project, plate reader, dry powder samples (AID 743048); assay type: functional;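 further: HEK293 cells carrying a WT1 promoter luciferase reporter driven by expressed Pax2; potency is for inhibition of Pax2 driven reporter signal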
[6] = cytotoxicity dependent on PAX8, dose response, cell-based, plate reader, dry powder (AID 743049); assay type: functional
[7] = target: Paired box protein Pax-8 (Homo sapiens, UniProt Q06710); assay: inhibitors of PAX8-driven TPO luciferase reporter, dose response, RMG-I cells, cherry-pick (AID 687027); assay type: functional, cell-based;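 further: luciferase reporter driven by Pax8 target thyroperoxidase promoter measured by SteadyGlo luminescence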
[8] = target: Interleukin-8 (Homo sapiens, UniProt P10145); assay: Dose Response confirmation of uHTS small molecule hits for cystic fibrosis induced NFkb Inhibitors in a PAF-induced IL8 counterscreen.; assay type: functional; settings: read-out: IC50_Mean
[9] = tested on: Vero; assay: host cell cytotoxicity of antiviral hits, dose response, cytotoxicity control for West Nile virus antiviral project, secondary assay (AID 1650); assay type: functional; settings: Chlorocebus sabaeus
[10] = target: T1, Microphthalmia-associated transcription factor (Homo sapiens, UniProt O75030); assay: TRPM1 promoter luciferase signal decrease, dose response, MITF inhibitor project, cell-based, SK-MEL-5, cherry-picked, set 3 (AID 493073); assay type: functional
T1 sequence (O75030 whole entry): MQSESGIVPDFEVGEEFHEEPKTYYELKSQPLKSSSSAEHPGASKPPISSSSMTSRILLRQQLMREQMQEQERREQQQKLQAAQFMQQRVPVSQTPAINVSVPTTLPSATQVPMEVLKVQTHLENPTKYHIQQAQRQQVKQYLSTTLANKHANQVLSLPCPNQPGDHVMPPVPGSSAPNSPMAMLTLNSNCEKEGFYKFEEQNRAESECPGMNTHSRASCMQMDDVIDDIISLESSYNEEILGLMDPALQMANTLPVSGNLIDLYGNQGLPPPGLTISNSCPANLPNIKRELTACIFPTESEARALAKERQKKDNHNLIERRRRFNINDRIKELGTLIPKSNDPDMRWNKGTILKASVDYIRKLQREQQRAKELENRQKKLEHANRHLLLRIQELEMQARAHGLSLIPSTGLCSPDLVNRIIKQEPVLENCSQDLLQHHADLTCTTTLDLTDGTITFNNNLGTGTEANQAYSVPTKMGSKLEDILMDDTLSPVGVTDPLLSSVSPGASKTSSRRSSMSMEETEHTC

[11] = IGROV1 ovarian cancer cell cytotoxicity, dose response, PAX8 inhibitor project, plate reader, dry powder samples (AID 743043); assay type: functional, cell-based; settings: IGROV-1
[12] = target: T2, Apoptotic protease-activating factor 1 (Homo sapiens, UniProt O14727); assay: SAR analysis of small molecule Activators of Apaf-1 in a Fluorescent assay.; assay type: functional; settings: read-out: EC50_Mean;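 further: caspase-3 cleavage of fluorogenic Rh110 DEVD substrate downstream of apoptosome activation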
T2 sequence (O14727 whole entry): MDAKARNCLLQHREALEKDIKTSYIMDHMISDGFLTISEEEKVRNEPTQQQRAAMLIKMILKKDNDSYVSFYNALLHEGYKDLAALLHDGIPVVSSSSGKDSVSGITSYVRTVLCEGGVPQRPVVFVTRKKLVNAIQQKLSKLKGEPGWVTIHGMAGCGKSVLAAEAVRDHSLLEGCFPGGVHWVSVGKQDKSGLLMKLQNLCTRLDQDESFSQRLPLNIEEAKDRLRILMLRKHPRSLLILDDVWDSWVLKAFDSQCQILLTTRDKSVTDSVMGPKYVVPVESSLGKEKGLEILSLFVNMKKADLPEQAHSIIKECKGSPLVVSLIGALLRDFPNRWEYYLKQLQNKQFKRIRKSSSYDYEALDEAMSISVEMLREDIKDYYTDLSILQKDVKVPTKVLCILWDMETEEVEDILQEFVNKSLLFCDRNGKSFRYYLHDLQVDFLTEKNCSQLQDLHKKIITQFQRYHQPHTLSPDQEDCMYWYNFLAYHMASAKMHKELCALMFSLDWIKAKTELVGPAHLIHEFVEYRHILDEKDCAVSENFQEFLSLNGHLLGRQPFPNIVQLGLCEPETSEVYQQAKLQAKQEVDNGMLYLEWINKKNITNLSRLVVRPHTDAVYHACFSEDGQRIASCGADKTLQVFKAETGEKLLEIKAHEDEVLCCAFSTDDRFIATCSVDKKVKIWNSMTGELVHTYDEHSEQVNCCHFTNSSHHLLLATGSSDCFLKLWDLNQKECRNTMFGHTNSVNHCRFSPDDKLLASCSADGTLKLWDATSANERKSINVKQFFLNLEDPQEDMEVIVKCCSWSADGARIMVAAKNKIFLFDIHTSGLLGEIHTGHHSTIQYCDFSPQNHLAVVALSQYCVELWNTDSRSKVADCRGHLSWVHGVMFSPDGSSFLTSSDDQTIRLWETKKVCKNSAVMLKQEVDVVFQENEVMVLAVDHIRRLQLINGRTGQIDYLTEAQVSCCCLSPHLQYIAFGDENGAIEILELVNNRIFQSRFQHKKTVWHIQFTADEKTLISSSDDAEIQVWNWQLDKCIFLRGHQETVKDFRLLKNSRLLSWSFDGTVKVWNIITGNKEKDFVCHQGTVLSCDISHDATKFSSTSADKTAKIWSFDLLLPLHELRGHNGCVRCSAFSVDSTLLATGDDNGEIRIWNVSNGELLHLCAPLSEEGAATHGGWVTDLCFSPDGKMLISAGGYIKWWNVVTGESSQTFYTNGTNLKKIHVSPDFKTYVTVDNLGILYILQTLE

[13] = target: T3, Aryl hydrocarbon receptor (Homo sapiens, UniProt P35869); assay: Luminescence-based cell-based high throughput dose response assay for activators of the Aryl Hydrocarbon Receptor (AHR). [Related pubchem assays: 2796 (Primary screen (AHR activators in singlicate)), 2845 (Confirmation screen (AHR activators in triplicate)), 434939 (Counterscreen (PXR activators in triplicate)), 2804 (Summary (AHR activators))]; assay type: ADME
T3 sequence (P35869 whole entry): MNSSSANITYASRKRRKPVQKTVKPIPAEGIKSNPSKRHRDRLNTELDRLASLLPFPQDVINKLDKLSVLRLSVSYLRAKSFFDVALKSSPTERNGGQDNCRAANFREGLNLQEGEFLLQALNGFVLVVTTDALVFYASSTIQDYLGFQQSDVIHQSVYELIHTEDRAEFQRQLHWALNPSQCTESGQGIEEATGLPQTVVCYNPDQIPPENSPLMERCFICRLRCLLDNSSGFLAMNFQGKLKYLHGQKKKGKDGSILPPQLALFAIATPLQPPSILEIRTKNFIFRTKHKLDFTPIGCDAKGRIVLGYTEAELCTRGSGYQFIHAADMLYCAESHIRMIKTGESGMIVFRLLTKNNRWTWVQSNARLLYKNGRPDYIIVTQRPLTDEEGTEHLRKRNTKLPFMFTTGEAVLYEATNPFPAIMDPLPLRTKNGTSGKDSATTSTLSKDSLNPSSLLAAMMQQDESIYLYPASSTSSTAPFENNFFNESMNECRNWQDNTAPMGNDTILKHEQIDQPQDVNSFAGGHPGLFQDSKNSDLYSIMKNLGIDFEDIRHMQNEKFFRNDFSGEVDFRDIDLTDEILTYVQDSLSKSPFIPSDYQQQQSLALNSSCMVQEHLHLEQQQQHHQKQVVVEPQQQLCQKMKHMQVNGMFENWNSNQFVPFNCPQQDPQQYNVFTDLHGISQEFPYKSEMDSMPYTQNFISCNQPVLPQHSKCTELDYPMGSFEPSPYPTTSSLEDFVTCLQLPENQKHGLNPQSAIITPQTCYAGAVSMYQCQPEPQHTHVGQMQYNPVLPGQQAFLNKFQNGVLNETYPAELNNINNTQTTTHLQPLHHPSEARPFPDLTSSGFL

[14] = target: T4, Protein RecA (Mycobacterium tuberculosis, UniProt P9WHJ3); assay: Fluorescence Cell-Free Homogeneous Dose Retest to Identify Inhibitors of RecA-Intein Splicing Activity. [Related pubchem assays (depositor defined):AID2097, AID2223, AID489010, AID492950]; assay type: functional
T4 sequence (P9WHJ3 whole entry): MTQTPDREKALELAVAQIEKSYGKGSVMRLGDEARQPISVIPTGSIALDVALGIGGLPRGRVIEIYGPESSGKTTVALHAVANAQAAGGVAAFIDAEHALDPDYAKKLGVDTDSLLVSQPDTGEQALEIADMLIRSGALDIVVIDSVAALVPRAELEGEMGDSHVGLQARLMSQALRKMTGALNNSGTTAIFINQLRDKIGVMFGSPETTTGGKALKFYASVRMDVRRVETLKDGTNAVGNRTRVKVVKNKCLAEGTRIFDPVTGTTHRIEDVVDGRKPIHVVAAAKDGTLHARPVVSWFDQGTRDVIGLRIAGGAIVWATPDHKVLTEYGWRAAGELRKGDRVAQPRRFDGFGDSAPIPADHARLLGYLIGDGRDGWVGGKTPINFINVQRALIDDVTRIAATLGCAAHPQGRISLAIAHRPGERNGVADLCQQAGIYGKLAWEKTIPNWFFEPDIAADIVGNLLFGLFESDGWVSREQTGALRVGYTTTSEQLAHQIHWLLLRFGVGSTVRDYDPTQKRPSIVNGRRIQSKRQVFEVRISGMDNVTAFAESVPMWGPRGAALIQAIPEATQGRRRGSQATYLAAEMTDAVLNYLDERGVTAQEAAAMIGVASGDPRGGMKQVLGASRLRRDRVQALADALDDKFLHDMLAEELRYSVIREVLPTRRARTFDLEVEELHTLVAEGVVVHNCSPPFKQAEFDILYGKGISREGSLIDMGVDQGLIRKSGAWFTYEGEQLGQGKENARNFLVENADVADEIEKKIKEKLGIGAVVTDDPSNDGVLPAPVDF

[15] = target: T5, Mitochondrial peptide methionine sulfoxide reductase (Bos taurus, UniProt P54149); assay: Absorbance-based biochemical high throughput dose response assay for activators of Methionine sulfoxide reductase A (MsrA).; assay type: functional
T5 sequence (P54149 whole entry): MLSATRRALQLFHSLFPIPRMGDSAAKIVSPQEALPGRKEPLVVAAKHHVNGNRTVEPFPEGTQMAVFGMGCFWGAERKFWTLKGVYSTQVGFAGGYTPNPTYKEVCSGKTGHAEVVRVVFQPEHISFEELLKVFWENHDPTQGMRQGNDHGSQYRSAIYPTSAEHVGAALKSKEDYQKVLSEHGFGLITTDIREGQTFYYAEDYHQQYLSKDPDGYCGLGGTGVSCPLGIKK

[16] = target: T6, Replicative DNA helicase DnaB (Mycobacterium tuberculosis, UniProt P9WMR3); assay: DnaB intein splicing inhibitors, dose response, biochemical, cell-free fluorescence (AID 449749); assay type: functional
T6 sequence (P9WMR3 whole entry): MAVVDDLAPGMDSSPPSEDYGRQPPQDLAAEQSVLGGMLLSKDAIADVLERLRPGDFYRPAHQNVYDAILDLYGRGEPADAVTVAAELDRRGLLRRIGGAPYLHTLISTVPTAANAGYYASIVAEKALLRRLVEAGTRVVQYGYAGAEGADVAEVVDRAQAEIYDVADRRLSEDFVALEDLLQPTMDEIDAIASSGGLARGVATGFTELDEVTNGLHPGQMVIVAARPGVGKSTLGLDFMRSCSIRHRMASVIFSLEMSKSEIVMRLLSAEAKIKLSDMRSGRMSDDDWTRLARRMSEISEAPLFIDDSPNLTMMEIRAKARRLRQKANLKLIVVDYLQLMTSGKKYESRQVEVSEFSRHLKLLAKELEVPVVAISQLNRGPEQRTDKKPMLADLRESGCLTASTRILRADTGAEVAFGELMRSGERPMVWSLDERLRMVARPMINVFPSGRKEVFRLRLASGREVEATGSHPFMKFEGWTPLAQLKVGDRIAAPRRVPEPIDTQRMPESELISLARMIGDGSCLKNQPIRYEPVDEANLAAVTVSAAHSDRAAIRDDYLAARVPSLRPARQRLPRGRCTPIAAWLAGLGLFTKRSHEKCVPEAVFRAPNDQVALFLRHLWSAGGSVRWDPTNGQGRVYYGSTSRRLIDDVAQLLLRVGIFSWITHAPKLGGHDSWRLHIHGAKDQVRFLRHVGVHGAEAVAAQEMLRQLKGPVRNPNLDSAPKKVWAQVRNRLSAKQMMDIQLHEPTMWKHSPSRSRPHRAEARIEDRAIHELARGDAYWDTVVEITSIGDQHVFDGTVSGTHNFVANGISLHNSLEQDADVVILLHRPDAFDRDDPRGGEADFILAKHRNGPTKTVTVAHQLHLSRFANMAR

[17] = target: T5, Mitochondrial peptide methionine sulfoxide reductase; assay type: functional

Chain of Paired box protein Pax-8 (Q06710 whole entry): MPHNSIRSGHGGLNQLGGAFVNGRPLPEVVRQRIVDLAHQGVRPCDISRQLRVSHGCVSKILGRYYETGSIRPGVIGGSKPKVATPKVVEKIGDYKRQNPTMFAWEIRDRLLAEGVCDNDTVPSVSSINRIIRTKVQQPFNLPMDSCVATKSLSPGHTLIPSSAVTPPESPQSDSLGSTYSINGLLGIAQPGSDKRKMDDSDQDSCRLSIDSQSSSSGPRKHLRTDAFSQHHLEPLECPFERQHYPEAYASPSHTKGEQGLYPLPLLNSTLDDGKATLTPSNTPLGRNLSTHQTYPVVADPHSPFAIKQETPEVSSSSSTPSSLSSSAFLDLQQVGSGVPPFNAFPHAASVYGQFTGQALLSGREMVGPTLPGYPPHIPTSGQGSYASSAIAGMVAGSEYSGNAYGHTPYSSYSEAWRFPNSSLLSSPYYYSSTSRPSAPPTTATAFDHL
Chain of Interleukin-8 (P10145 whole entry): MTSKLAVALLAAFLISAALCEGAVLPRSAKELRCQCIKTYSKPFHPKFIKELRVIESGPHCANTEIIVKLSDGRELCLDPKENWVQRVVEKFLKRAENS

SMILES: Cc1ccc(S(=O)(=O)CC(CN2CCCCC2)N2CCCCC2)cc1 (configuration not stated)
- AC50 [1]: 9.72 µM (active)
- AC50 [2]: 15.7 µM (active)
- AC50 [3]: 22.9 µM (active)
- AC50 [4]: 80.7 µM (active)
- AC50 [5]: > 100 µM (inactive)
- AC50 [6]: 17.1 µM (active)
- AC50 [7]: 4.72 µM (active)
- IC50 [8]: 4.55 µM (active)
- CC50 [9]: 8.81 µM (active)
- AC50 [10]: 8.1 µM (active)
- AC50 [11]: 46.5 µM (active)

SMILES: Cc1cccc(C)c1N1C(=O)CC2(CC(c3ccc4c(c3)OCCO4)=NO2)C1=O (configuration not stated)
- EC50 [12]: > 100 µM (inactive)

SMILES: O=C1/C(=N/c2ccc(O)cc2)C(Cl)=C(O)c2ccccc21
- EC50 [13]: > 1.13 µM (active)
- EC50 [14]: 3.48 µM (active)
- EC50 [15]: > 104 µM (inactive)
- AC50 [16]: 3.36 µM (active)
- IC50 [17]: 155 µM (inactive)
